According to patent US8378104B2 (OSI Pharmaceuticals, LLC, priority 2010, dated 2013):
Structures can show the parent of a compound that is named as a salt.

Tests used:
TAK1-TAB1 fusion protein = molecular target: T1, TAK1-TAB1 fusion protein (Homo sapiens, UniProt O43318); assay: TAK1 biochemical assay (AlphaScreen, GST-MAP2K7 substrate); conditions: TAK1-TAB1 fusion protein, GST-MAP2K7 substrate; read-out: mean TAK1 IC50 (Col. A)
T1 construct: purchased Carna
T1 sequence (O43318 with tags, fused parts or gaps limits assumed): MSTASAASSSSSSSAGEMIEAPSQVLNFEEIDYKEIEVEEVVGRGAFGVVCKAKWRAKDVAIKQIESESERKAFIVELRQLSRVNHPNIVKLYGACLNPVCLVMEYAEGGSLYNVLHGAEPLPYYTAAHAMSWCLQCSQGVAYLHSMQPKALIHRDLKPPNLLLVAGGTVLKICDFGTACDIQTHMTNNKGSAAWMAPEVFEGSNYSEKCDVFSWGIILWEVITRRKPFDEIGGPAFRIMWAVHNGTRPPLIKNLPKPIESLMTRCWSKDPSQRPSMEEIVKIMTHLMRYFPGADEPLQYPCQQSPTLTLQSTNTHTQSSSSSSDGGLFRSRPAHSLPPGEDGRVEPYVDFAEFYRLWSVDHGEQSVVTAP

pJNK in HCT-116 cells = assay: Phospho-JNK (Thr183/Tyr185) Meso Scale ELISA assay, TNFα-stimulated HCT-116 cells; format: cell-based; conditions: Homo sapiens, read-out: mean HCT-116 pJNK ELISA IC50 (Col. B)
Description: Detailed below are ELISA assays for pJNK and p38, and a TAK1 biochemical assay. […] In Table 1, Col.
Phospho-JNK (Thr183/Tyr185) Meso Scale ELISA Assay
• 1. Plate HCT-116 cells at 25,000 per well in 100 uL in 96 well clear dishes in normal growth medium. Day 2: • 1. Aspirate medium and replace with 90 μl reduced serum growth medium (1% FCS), incubate for 2 hours at 37° C. • 2. Make drugs at 10× in reduced serum medium and add 10 uL per well. • 3. Incubate at 37° C. for 4 hrs. • 4. Bring capture plates to room temperature. • 5. Block with 150 μl Blocking Solution (provided with kit) (600 mg Blocker A into 20 mL 1× Wash Buffer per plate) at room temperature with shaking. • 6. Wash plates 4× with 200 μl 1× wash buffer (10× provided with kit) before transferring lysates. • 7. Dilute TNFα to […] in reduced serum medium (this makes a 10× working stock). • 8. Add 10 μl TNFα to all wells except negative control wells, final concentration is 10 ng/mL. • 9. Incubate at 37° C. for 10 minutes. • 10. Remove medium by flicking into sink • 11. Wash cells with 100 uL ice cold PBS. • 12. Remove PBS by flicking into sink and patting on paper towels. • 13. Lyse cells in 50 μl ice cold 1× Complete Lysis Buffer plus Phosphatase and Protease inhibitors (all provided with kit) (10 mL Tris Lysis Buffer+200 μl Protease inhibitor solution+100 μl Phosphatase inhibitor I+100 μl Phosphatase inhibitor II). • 14. Incubate with shaking at 4° C. for 30 minutes. • 15. Transfer 45 μl to capture plate, cover with adhesive cover, and incubate at 4° C. over night with shaking. • Day 3: • 1. Wash plates 4× with 200 μl 1× wash buffer (10× provided with kit). • 2. […] Incubate at room temperature with shaking for 1 hour. • 4. Wash 4× with 200 μl 1× Wash Buffer. • 5. […] Read on Sector Imager. Phospho-p38 Meso Scale ELISA Assay Day 1: • 1. Plate HCT-116 cells at 25,000 per well in 100 uL in 96 well clear dishes in normal growth medium. zday 2: • 1. Aspirate medium and replace with 90 μl reduced serum growth medium (1% FCS), incubate for 2 hours at 37° C. • 2. Make drugs at 10× in reduced serum medium and add 10 uL per well. • 3. Incubate at 37° C. for 4 hrs. • 4. Bring capture plates to room temperature. • 5. Block with 150 μl Blocking Solution (provided with kit) (600 mg Blocker A into 20 mL 1× Wash Buffer per plate) at room temperature with shaking. • 6. Wash plates 4× with 200 μl 1× wash buffer (10× provided with kit) before transferring lysates. • 7. Dilute TNFα to […] in reduced serum medium (this makes a 10× working stock). • 8. Add 10 μl TNFα to all wells except negative control wells, final concentration is 10 ng/mL. • 9. Incubate at 37° C. for 10 minutes. • 10. Remove medium by flicking into sink • 11. Wash cells with 100 uL ice cold PBS. • 12. Remove PBS by flicking into sink and patting on paper towels. • 13. Lyse cells in 50 μl ice cold 1× Complete Lysis Buffer plus phosphatase and protease inhibitors (all provided with kit) (10 mL Tris Lysis Buffer+200 μl Protease inhibitor solution+100 μl Phosphatase inhibitor I+100 μl Phosphatase inhibitor II). • 14. Incubate with shaking at 4° C. for 30 minutes. • 15. Dilute lysates before transferring to capture plate with 100 μl Complete p38 Lysate • Dilution Buffer (provided with kit) (10 mL of Diluent 20±200 μl Protease inhibitor solution+100 μl Phosphatase inhibitor I+100 μl Phosphatase inhibitor II). • 16. Transfer 50 μl of diluted lysates to capture plate, cover with adhesive cover, and incubate at 4° C. over night with shaking. Day 3: • 1. Wash plates 4× with 200 μl 1× wash buffer (10× provided with kit). • 2. […] Incubate at room temperature with shaking for 1 hour. • 4. Wash 4× with 200 μl 1× Wash Buffer. • 5. […] Read on Sector Imager. TAK1 Biochemical Assay

| SMILES | IC50 (TAK1-TAB1 fusion protein) [nM] | IC50 (pJNK in HCT-116 cells) [nM] |
| --- | --- | --- |
| Nc1ncc(-c2cnn([C@@H]3CCC[C@@H](O)C3)c2)c2cc(-c3csc4cnccc34)oc12 (relative stereo) [Example 309, trans-3-[4-(7-amino-2-thieno[2,3-c]pyridin-3-yl-furo[2,3-c]pyridin-4-yl)-pyrazol-1-yl]-cyclohexanol] | < 100 | < 100 |
| Nc1ncc(-c2cnn([C@@H]3CCC[C@H](O)C3)c2)c2cc(-c3csc4cnccc34)oc12 (relative stereo) [Example 310, cis-3-[4-(7-amino-2-thieno[2,3-c]pyridin-3-yl-furo[2,3-c]pyridin-4-yl)-pyrazol-1-yl]-cyclohexanol] | < 100 | < 100 |
| CC(=O)N1CCC(n2cc(-c3cnc(N)c4oc(-c5cccc6ncsc56)cc34)cn2)CC1 [Example 225, 1-(4-{4-[7-amino-2-(1,3-benzothiazol-7-yl)furo[2,3-c]pyridin-4-yl]-1H-pyrazol-1-yl}piperidin-1-yl)ethanone diformate salt] | < 100 | < 100 |
| Nc1ncc(-c2cnn(C3CCN(C(=O)C4CC4)CC3)c2)c2cc(-c3csc4cnccc34)oc12 [Example 228, (4-{4-[7-amino-2-(thieno[2,3-c]pyridin-3-yl)furo[2,3-c]pyridin-4-yl]-1H-pyrazol-1-yl}piperidin-1-yl)(cyclopropyl)methanone diformate salt] | < 100 | < 100 |
| Nc1ncc(-c2cnn([C@H]3CC[C@H](O)CC3)c2)c2cc(-c3cccc4ncsc34)oc12 [Example 231, trans-4-{4-[7-amino-2-(1,3-benzothiazol-7-yl)furo[2,3-c]pyridin-4-yl]-1H-pyrazol-1-yl}cyclohexanol diformate salt] | < 100 | < 100 |
| CC(=O)N1CCC(n2cc(-c3cnc(N)c4oc(-c5csc6cnc(F)cc56)cc34)cn2)CC1 [Example 248, 1-(4-{4-[7-amino-2-(5-fluorothieno[2,3-c]pyridin-3-yl)furo[2,3-c]pyridin-4-yl]-1H-pyrazol-1-yl}piperidin-1-yl)ethanone bis(trifluoroacetate)] | < 100 | < 100 |
| CC(=O)N1CCC(n2cc(-c3cnc(N)c4oc(-c5csc6cnc(O)cc56)cc34)cn2)CC1 [Example 251, 1-(4-{4-[7-amino-2-(5-hydroxythieno[2,3-c]pyridin-3-yl)furo[2,3-c]pyridin-4-yl]-1H-pyrazol-1-yl}piperidin-1-yl)ethanone bis(trifluoroacetate)] | 100 to 1000 | 1000 to 10000 |
| CC(=O)N1CCC(n2cc(-c3cnc(N)c4oc(-c5ccnc6cc(Cl)ccc56)cc34)cn2)CC1 [Example 409, 1-(4-{4-[7-amino-2-(7-chloroquinolin-4-yl)furo[2,3-c]pyridin-4-yl]-1H-pyrazol-1-yl}piperidin-1-yl)ethanone] | 1000 to 10000 | – |

The remaining lines, values ahead:

| IC50 (TAK1-TAB1 fusion protein) [nM] | IC50 (pJNK in HCT-116 cells) [nM] | SMILES |
| --- | --- | --- |
| < 100 | 100 to 1000 | Nc1ncc(-c2cnn([C@@H]3CCC[C@@H](O)C3)c2)c2cc(-c3cccc4cnsc34)oc12 (relative stereo) [Example 313, trans-3-[4-(7-amino-2-benzo[d]isothiazol-7-yl-furo[2,3-c]pyridin-4-yl)-pyrazol-1-yl]-cyclohexanol] |
| 100 to 1000 | 100 to 1000 | CC(=O)N1CCC(n2cc(-c3cnc(N)c4oc(-c5ccc(F)c6cnsc56)cc34)cn2)CC1 [Example 223, 1-(4-{4-[7-amino-2-(4-fluoro-1,2-benzothiazol-7-yl)furo[2,3-c]pyridin-4-yl]-1H-pyrazol-1-yl}piperidin-1-yl)ethanone diformate salt] |
| < 100 | < 100 | CC(=O)N1CCC(n2cc(-c3cnc(N)c4oc(-c5cc(F)cc6cnsc56)cc34)cn2)CC1 [Example 237, 1-(4-{4-[7-amino-2-(5-fluoro-1,2-benzothiazol-7-yl)furo[2,3-c]pyridin-4-yl]-1H-pyrazol-1-yl}piperidin-1-yl)ethanone diformate salt] |
| 100 to 1000 | 100 to 1000 | CC(=O)N1CCC(n2cc(-c3cnc(N)c4oc(-c5c(F)ccc6cnsc56)cc34)cn2)CC1 [Example 239, 1-(4-{4-[7-amino-2-(6-fluoro-1,2-benzothiazol-7-yl)furo[2,3-c]pyridin-4-yl]-1H-pyrazol-1-yl}piperidin-1-yl)ethanone diformate salt] |
| < 100 | < 100 | CC(=O)N1CCC(n2cc(-c3cnc(N)c4oc(-c5cccc6sncc56)cc34)cn2)CC1 [Example 241, 1-(4-{4-[7-amino-2-(1,2-benzothiazol-4-yl)furo[2,3-c]pyridin-4-yl]-1H-pyrazol-1-yl}piperidin-1-yl)ethanone diformate Salt] |
| < 100 | < 100 | Nc1ncc(-c2cnn([C@H]3CC[C@H](O)CC3)c2)c2cc(-c3cccc4sncc34)oc12 [Example 242, trans-4-{4-[7-amino-2-(1,2-benzothiazol-4-yl)furo[2,3-c]pyridin-4-yl]-1H-pyrazol-1-yl}cyclohexanol Diformate Salt] |
| 100 to 1000 | 100 to 1000 | CC(=O)N1CCC(n2cc(-c3cnc(N)c4oc(-c5csc6cnc(Cl)cc56)cc34)cn2)CC1 [Example 246, 1-(4-{4-[7-amino-2-(5-chlorothieno[2,3-c]pyridin-3-yl)furo[2,3-c]pyridin-4-yl]-1H-pyrazol-1-yl}piperidin-1-yl)ethanone bis(trifluoroacetate)] |
| 100 to 1000 | 100 to 1000 | Nc1ncc(-c2cnn([C@H]3CC[C@H](O)CC3)c2)c2cc(-c3csc4cnc(Cl)cc34)oc12 [Example 247, trans-4-{4-[7-amino-2-(5-chlorothieno[2,3-c]pyridin-3-yl)furo[2,3-c]pyridin-4-yl]-1H-pyrazol-1-yl}cyclohexanol bis(trifluoroacetate)] |
| 100 to 1000 | 100 to 1000 | CC(=O)N1CCC(n2cc(-c3cnc(N)c4oc(-c5csc6c(F)nccc56)cc34)cn2)CC1 [Example 256, 1-(4-{4-[7-amino-2-(7-fluorothieno[2,3-c]pyridin-3-yl)furo[2,3-c]pyridin-4-yl]-1H-pyrazol-1-yl}piperidin-1-yl)ethanone trifluoroacetic acid salt] |
| < 100 | 100 to 1000 | CC(=O)N1CCC(n2cc(-c3cnc(N)c4oc(-c5csc6cnncc56)cc34)cn2)CC1 [Example 261, 1-(4-{4-[7-amino-2-(thieno[2,3-d]pyridazin-3-yl)furo[2,3-c]pyridin-4-yl]-1H-pyrazol-1-yl}piperidin-1-yl)ethanone diformate] |
| > 10000 | – | CC(=O)N1CCC(n2cc(-c3cnc(N)c4oc(-c5ccccc5C(F)(F)F)cc34)cn2)CC1 [Example 411, 1-[4-(4-{7-amino-2-[2-(trifluoromethyl)phenyl]furo[2,3-c]pyridin-4-yl}-1H-pyrazol-1-yl)piperidin-1-yl]ethanone] |
